Experimental data: US20240018125A1, “CYCLIC ISOTHIOUREA DERIVATIVES AS CXCR4 MODULATORS” (ERMIUM THERAPEUTICS, priority 2020, published 2024)
Where a name gives a salt, the structure may show the parent alone.

Molecular target: T1, human CXCR4 (hCXCR4) receptor (Homo sapiens, UniProt P61073)
T1 construct: expressed in transfected cells; host or cells: HEK-293 T cells, transient co-transfection with polyethylenimine
Assay: BRET assay of antagonist activity on the CXCR4-CXCL12 signaling pathway (Gαi2 recruitment) in HEK-293 T cells
Assay type: cell-based
Conditions: HEK-293 T cells with hCXCR4, Gαi2 and BRET biosensors; 10 min with compound, then EC80 CXCL12
Experimental: Examples of the present invention were tested for their antagonist activity on human CXCR4 (hCXCR4) receptor transiently over-expressed in HEK-293 T cells. Compounds exert antagonist activity if they decrease the action of CXCL12 on the receptor.
The specific effector (luciferase tagged: BRET donor) recruited at the membrane will be in close proximity to a plasma membrane anchor (GFP tagged: BRET acceptor) to induce a BRET signal (Hamdan et a1, 2006, Chapter 5, Current Protocols in Neuroscience).
HEK-293 T cells are maintained in Dulbecco's Modified Eagle's Medium supplemented with 10% Foetal Calf Serum, 1% Penicillin/Streptomycin at 37° C./5% CO2. Cells are co-transfected using polyethylenimine (25 kDa linear) with several DNA plasmids encoding: hCXCR4; Gai2; an intracellular effector fused to luciferase (BRET donor); a plasma membrane effector fused to GFP (BRET acceptor). After transfection, cells are cultured for 48 h at 37° C./5% CO2. On the day of the assay, cells are detached using trypsin 0.05%, resuspended in assay buffer (1.8 mM CaCl2, 1 mM MgCl2, 2.7 mM KCl, 137 mM NaCl, 0.4 mM NaH2PO4, 5.5 mM D-Glucose, 11.9 mM NaHCO3, 25 mM Hepes) and seeded in 384 well plate at a density of 20,000 cells per well. Then, plates are equilibrated 3.5 h at 37° C. before adding compounds. Compounds and luciferase substrate are added to the cells using an automated device (Freedom Evo®, Tecan) and BRET readings are collected on EnVision (PerkinElmer) with specific filters (410 nm BW 80 nm, 515 nm BW 30 nm).
Cells are first incubated for 10 minutes with the compound alone. Then, cells are stimulated by an EC80 CXCL12 concentration for additional 10 minutes and luminescence is recorded. EC80 CXCL12 concentration is the concentration giving 80% of the maximal CXCL12 response. Antagonist activity is evaluated in comparison to basal signals evoked by EC80 CXCL12 alone.
For IC50 determination, a dose-response test is performed using 20 concentrations (ranging over 6 logs) of each compound. Dose-response curves are fitted using the sigmoidal dose-response (variable slope) analysis in GraphPad Prism software (GraphPad Software) and IC50 of antagonist activity is calculated. Dose-response experiments are performed in duplicate, in two independent experiments.
HEK-293 T cells were transfected to allow measuring the recruitment of Gai2 proteins involved in intracellular signaling by human CXCR4 receptor (hCXCR4) via the BRET technology. Cells were then incubated with various concentrations of examples of the invention before stimulation with an EC80 concentration of CXCL12.

T1 sequence (P61073 whole entry): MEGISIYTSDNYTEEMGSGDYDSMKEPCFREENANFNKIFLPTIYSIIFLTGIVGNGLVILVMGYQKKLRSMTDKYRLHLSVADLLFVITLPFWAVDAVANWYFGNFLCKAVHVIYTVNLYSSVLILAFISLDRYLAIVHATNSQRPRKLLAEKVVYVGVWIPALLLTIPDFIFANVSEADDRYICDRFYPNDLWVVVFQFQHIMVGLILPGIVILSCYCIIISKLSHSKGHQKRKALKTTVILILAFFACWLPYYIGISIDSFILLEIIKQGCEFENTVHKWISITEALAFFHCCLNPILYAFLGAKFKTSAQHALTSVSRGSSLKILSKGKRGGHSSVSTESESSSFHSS

Work on `Clc1ccc2c(c1)CN=C(SCCCCN1CCCC1)N2` [Example 60, 6-chloro-2-((4-(pyrrolidin-1-yl)butyl)thio)-1,4-dihydroquinazoline dihydrochloride] yielded an IC50 of at least 15 µM.
